Consider three compounds from patent publication US10143727B2, “Method using an Y1 receptor activator for treating an anticancer agent-induced nephrotoxic injury” (KYUNGPOOK NATIONAL UNIVERSITY INDUSTRY-ACADEMIC COOPERATION …, priority 2016, dated 2018).

The test system of series [1] is cisplatin-induced renal injury. Kind of series: Histology (H&E staining) and morphological assessment of renal tissues. It is filed as in vivo, C57BL/6 mice. As to the method:
(§1) Six- to eight-weeks old male or female C57BL/6 mice were purchased from the Jackson laboratory. A block randomization method was used to divide these animals into experimental groups. In order to eliminate bias, investigators were blinded during data collection and analysis. The mice were housed under a 12 hour day-night cycle. They were provided with free access to water and food pellets. This animal study was approved by the Kyungpook National University Institutional Animal Care and Use Committee.
(§2) Three days later, kidneys were collected and analyzed.
(§3) Formaldehyde-fixed kidneys were dehydrated using graded alcohol series and paraffinized. Paraffin sections of 5 μm were stained with hematoxylin and eosin (H&E). Each parameter was determined for at least 6 different animals. TUNEL assays were performed using In Situ Cell Detection Kit, Fluorescein (Roche Diagnostic) according to the manufacturer's instructions. A pathologist quantified kidney damage in a double blinded manner using renal damage score, as previously described (See Jiang M et al., Am J Physiol Renal Physiol 287, F1140-1147, 2004). Briefly, tissues were stained with H&E. The degree of morphological involvement in renal dysfunction was determined using light microscopy.
Each parameter was determined for at least five different animals.

Series [2] concerns cisplatin-induced apoptosis in the kidney. Nature of the series: TUNEL assay of renal apoptosis. The class given is in vivo, C57BL/6 mice. The settings on record: cisplatin 15 mg per kg mice; 50 ug per kg i.p. daily for 3 days. As to the method: as §1, §2, §3
The subject of series [3] is p53-dependent apoptosis pathway. The class given is in vivo. Particulars: renal tissues of cisplatin-treated mice; 50 ug per kg i.p. daily for 3 days. The procedure:
as §1, §2
Samples were immunoblotted as previously described (See Santos-Carvalho A et al., Cell Death Dis 4, e636, 2013). Primary antibodies against the following proteins were used: P53(mouse, 1: 1000, Cell Signaling Technologies, 2524), Bax (rabbit, 1: 1000, Cell Signaling Technologies, 2772), Bcl2 (rabbit, 1: 1000, Cell Signaling Technologies, 5114S), and β-actin (1: 1000, Santa Cruz, SC-1615). Densitometric quantification was performed using Image J software (US National Institutes of Health).
Real time RT-PCR was performed as previously described (See Hu L et al., BMB Rep 48, 583-588, 2015). […] Quantitative real-time PCR was performed using Corbett research RG-6000 real-time PCR instrument. […]

Series [4] has as its system cisplatin-induced renal injury. Nature of the series: Creatinine and BUN assays in cisplatin-induced renal injury. The class given is in vivo, C57BL/6 mice. The settings on record: cisplatin 15 mg per kg mice; test peptide 50 ug per kg i.p. daily for 3 days; vs cisplatin-treated mice. The procedure:
as §1, §2
To monitor renal function, plasma levels of BUN and creatinine were determined using commercially available kits as described previously (See Pabla N et al., J Clin Invest 121, 2709-2722, 2011).

Consider `N.N.[Cl][Pt][Cl]` [cisplatin, Cisplatin, reference compound], for which, in series [1] (cisplatin 15 mg per kg alone), the “Apoptotic tubular cells in the renal cortex (H&E)” value was “increase”.
Take Neuropeptide Y [Neuropeptide Y (NPY)]: the “Cisplatin-induced increase in apoptotic tubular cells in the renal cortex (H&E)” value in series [1] (cisplatin 15 mg per kg mice, 50 ug per kg i.p. daily for 3 days) is given as “diminished”. Further, the “Apoptotic cells in the kidney (TUNEL assay)” value in series [2] was “decrease”. Also, the “Expression levels of p53 and pro-apoptotic genes such as Bax, Noxa, and Puma” value in series [3] is recorded as “decreased”. In series [4], the “Plasma concentration of blood urea nitrogen (BUN)” value is given as “decreased” and the “Plasma concentration of creatinine” value is reported as “decreased”.
For [Leu31Pro34]NPY [Y1 agonist], the “Renal injury (H&E, tubular damage)” value in series [1] (cisplatin 15 mg per kg mice, 50 ug per kg i.p. daily for 3 days, FIG. 3d) was “significantly reduced”. Further, the “Apoptotic cells in the kidney (TUNEL assay)” value in series [2] was “decreased”. Besides, in series [3], the “Expression levels of p53 and pro-apoptotic genes such as Bax, Noxa, and Puma” value is given as “suppressed”. In addition, in series [4], the “Plasma concentration of blood urea nitrogen (BUN)” value is listed as “reduced” and the “Plasma concentration of creatinine” value is “reduced”.
